IC50 data for 10 compounds are collected here from patent US10660877B2 (BRISTOL-MYERS SQUIBB COMPANY, priority 2016, dated 2020).

A word on the IC50: it is the concentration needed to halve the response being measured.

For assay [1], the target named is human TLR8 (Homo sapiens (Human), UniProt Q9NR97). The assay can be described thus: TLR8 inhibition reporter assay (HEK-Blue cells, SEAP reporter, R848 stimulation).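 Further: compounds tested from 0.05 nM to 50 µM, 22 h at 37 °C, SEAP measured with HEK-Blue Detection, inhibition relative to agonist plus DMSO versus a known inhibitor.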 For orientation: A reporter such as luciferase makes a cellular process visible.
Chain of human TLR8 (Q9NR97 27-1041): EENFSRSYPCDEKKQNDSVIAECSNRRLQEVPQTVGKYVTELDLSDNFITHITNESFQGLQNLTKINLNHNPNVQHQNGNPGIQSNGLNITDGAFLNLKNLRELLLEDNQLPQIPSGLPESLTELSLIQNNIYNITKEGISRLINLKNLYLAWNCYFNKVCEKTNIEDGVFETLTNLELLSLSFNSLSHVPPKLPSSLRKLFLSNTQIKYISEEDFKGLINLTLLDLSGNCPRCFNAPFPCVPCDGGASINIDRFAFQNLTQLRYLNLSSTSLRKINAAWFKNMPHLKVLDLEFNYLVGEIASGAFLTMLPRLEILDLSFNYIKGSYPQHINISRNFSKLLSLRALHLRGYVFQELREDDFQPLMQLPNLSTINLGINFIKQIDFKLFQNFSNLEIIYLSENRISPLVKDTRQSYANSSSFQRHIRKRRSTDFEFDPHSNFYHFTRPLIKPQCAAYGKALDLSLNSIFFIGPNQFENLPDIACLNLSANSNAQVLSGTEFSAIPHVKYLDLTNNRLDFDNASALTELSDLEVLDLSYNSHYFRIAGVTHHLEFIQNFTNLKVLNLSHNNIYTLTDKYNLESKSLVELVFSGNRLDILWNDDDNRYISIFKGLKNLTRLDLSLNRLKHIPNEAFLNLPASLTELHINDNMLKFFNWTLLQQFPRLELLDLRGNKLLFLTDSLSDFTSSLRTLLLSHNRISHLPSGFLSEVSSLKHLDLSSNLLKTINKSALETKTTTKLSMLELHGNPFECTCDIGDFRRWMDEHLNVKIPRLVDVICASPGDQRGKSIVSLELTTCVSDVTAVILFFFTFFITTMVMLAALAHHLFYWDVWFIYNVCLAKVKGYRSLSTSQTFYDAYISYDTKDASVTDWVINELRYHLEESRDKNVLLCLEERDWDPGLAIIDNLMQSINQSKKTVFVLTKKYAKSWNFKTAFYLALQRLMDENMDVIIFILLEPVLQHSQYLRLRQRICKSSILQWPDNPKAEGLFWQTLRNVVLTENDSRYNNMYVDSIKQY
In assay [2] the target is human TLR7 (Homo sapiens (Human), UniProt Q9NYK1). The assay can be described thus: TLR7 inhibition reporter assay (HEK-Blue cells, SEAP reporter, gardiquimod stimulation). In kind it is cell-based. The conditions noted are these: HEK-Blue cells overexpressing human TLR7, gardiquimod 7.5 μM.
Chain of human TLR7 (Q9NYK1 27-1049): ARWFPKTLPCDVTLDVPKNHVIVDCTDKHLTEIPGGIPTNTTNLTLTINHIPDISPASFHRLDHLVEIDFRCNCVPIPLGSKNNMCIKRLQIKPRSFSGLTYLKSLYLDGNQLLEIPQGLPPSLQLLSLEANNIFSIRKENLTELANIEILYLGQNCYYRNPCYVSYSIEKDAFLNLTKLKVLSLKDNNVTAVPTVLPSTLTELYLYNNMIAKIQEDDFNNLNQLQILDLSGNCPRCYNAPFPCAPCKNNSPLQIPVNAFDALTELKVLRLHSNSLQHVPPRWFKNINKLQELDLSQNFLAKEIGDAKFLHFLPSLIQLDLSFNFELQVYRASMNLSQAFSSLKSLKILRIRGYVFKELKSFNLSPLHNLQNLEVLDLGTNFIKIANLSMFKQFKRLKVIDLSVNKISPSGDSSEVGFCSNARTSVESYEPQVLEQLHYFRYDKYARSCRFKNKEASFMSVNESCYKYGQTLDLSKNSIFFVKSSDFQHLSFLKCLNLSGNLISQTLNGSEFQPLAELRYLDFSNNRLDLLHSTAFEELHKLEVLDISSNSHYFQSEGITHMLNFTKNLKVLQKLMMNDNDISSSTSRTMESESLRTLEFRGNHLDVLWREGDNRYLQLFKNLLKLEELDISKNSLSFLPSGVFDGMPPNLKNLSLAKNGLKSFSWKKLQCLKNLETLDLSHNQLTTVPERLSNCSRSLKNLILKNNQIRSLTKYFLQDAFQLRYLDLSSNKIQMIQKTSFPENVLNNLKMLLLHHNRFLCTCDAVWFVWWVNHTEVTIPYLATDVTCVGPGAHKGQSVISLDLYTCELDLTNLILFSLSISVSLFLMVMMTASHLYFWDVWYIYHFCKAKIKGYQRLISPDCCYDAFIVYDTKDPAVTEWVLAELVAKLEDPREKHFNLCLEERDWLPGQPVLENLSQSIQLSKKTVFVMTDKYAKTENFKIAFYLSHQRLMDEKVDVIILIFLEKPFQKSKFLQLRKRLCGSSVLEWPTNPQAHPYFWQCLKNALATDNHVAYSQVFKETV
Assay [3] concerns the target human TLR9 (Homo sapiens (Human), UniProt Q9NR96). Briefly: TLR9 inhibition reporter assay (HEK-Blue cells, SEAP reporter, ODN2006 stimulation).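 Further: compounds tested over 0.05 nM to 50 µM, 22 h incubation, inhibition taken as SEAP signal drop from agonist plus DMSO wells toward a known inhibitor control.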
Setting [4] is: TLR8 IC50, HEK-Blue cells overexpressing human TLR8, R848 15.9 μM.
Setting [5] is: TLR9 IC50, HEK-Blue cells overexpressing human TLR9, ODN2006 5 nM.
Setting [6] is: read-out: TLR8 IC50, HEK-Blue cells overexpressing human TLR8, R848 15.9 μM.
Where [7] appears, read: read-out: TLR9 IC50, HEK-Blue cells overexpressing human TLR9, ODN2006 5 nM.

Each structure is given as a SMILES string. Where two headings read alike, the source gives them in different places.

Chain of human TLR9 (Q9NR96 26-1032): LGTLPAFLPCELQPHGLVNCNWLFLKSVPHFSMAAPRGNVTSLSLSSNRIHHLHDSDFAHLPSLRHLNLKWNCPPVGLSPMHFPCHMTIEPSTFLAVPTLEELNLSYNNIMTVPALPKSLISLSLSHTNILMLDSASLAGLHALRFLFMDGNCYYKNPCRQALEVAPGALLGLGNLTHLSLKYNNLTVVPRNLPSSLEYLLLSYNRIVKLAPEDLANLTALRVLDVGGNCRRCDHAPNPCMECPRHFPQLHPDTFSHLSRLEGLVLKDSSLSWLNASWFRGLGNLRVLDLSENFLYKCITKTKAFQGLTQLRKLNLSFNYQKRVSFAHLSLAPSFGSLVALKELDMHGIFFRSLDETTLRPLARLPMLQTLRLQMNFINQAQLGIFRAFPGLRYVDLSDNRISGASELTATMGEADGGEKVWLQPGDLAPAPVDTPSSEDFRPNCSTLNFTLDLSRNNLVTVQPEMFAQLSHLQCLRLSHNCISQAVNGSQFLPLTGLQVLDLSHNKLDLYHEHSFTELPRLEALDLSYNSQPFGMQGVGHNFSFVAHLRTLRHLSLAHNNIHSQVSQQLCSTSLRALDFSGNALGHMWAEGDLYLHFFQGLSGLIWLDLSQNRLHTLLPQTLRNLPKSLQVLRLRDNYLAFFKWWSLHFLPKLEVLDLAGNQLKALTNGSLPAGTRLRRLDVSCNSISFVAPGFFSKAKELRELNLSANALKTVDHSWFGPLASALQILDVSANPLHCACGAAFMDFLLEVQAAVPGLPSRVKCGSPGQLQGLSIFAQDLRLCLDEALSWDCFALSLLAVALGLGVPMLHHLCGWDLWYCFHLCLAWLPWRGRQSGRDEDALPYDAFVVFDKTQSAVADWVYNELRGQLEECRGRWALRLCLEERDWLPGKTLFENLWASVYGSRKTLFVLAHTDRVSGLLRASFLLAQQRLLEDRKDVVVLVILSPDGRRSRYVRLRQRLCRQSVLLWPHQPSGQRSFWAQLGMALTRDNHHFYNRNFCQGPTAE

As for `Cc1cc(-c2[nH]c3ccc(C4CCNCC4(F)F)cc3c2C(C)C)cc(C)n1` (single isomer, unassigned) [Example 489B, 5-(3,3-difluoropiperidin-4-yl)-2-(2,6-dimethylpyridin-4-yl)-3-isopropyl-1H-indole], the IC50 in assay [1] (setting [4]) came out at 20 nM; in assay [2], 1.3 nM; in assay [3] (setting [5]), 1010 nM.

In the case of `Cc1cc(-c2[nH]c3ccc(C4CCN(C(=O)[C@@H](N)Cc5c[nH]cn5)CC4)cc3c2C(C)C)ccn1` [Example 574, (S)-2-amino-3-(1H-imidazol-4-yl)-1-(4-(3-isopropyl-2-(2-methylpyridin-4-yl)-1H-indol-5-yl)piperidin-1-yl)propan-1-one], the IC50 was found to be 15.6 nM in assay [1] (setting [6]), 82.9 nM in assay [2] and 851 nM in assay [3] (setting [7]).

`Cc1cc(-c2[nH]c3ccc(C4CCN(C(=O)CNCC(C)(C)O)CC4)cc3c2C(C)C)cc(C)n1` [Example 375, 1-(4-(2-(2,6-dimethylpyridin-4-yl)-3-isopropyl-1H-indol-5-yl)piperidin-1-yl)-2-((2-hydroxy-2-methylpropyl)amino)ethan-1-one]: the half-inhibitory concentration (IC50) was 80.6 nM in assay [1] (setting [6]), 13.1 nM in assay [2] and 1780 nM in assay [3] (setting [7]).

On to `Cc1cc(-c2[nH]c3ccc(C4CCN(CC(=O)N5CCC[C@@H]5CO)CC4)cc3c2C(C)C)cc(C)n1` [Example 302, (R)-2-(4-(2-(2,6-dimethylpyridin-4-yl)-3-isopropyl-1H-indol-5-yl)piperidin-1-yl)-1-(2-(hydroxymethyl)pyrrolidin-1-yl) ethan-1-one], for which the IC50 was found to be 63.1 nM in assay [1] (setting [6]), 8.2 nM in assay [2] and 1260 nM in assay [3] (setting [7]).

`CCOCCNC(=O)CN1CCC(c2ccc3[nH]c(-c4cc(C)nc(C)c4)c(C(C)C)c3c2)CC1` [Example 240, 2-(4-(2-(2,6-dimethylpyridin-4-yl)-3-isopropyl-1H-indol-5-yl)piperidin-1-yl)-N-(2-ethoxyethyl)acetamide]: the figures for the IC50 in assay [1] (setting [4]), in assay [2] and in assay [3] (setting [5]) were 7.9 nM, 8.3 nM and 1090 nM, respectively.

`Cc1cc(-c2[nH]c3ccc(C4CCN(C(=O)CN(C)CC(O)c5ccccc5)CC4)cc3c2C(C)C)cc(C)n1` (stereo not drawn) [Example 399, 1-(4-(2-(2,6-dimethylpyridin-4-yl)-3-isopropyl-1H-indol-5-yl)piperidin-1-yl)-2-((2-hydroxy-2-phenylethyl)(methyl)amino)ethan-1-one]: the IC50 was 66.9 nM in assay [1] (setting [6]), 6.1 nM in assay [2] and 688 nM in assay [3] (setting [7]).

Consider `Cc1cc(-c2[nH]c3ccc(C4CCN(Cc5nnc(C6CC6)o5)CC4)cc3c2C(C)C)c(C)cn1` [Example 697, 2-cyclopropyl-5-((4-(2-(2,5-dimethylpyridin-4-yl)-3-isopropyl-1H-indol-5-yl)piperidin-1-yl)methyl)-1,3,4-oxadiazole], for which the IC50 in assay [1] (setting [6]) is 20.7 nM; in assay [2], 223 nM; in assay [3] (setting [7]), above 50000 nM.

Consider `Cc1cc(-c2[nH]c3ccc(C4CCN(CC(=O)N5CCCC5C)CC4)cc3c2C(C)C)cc(C)n1` (stereo not drawn) [Example 259, 2-(4-(2-(2,6-dimethylpyridin-4-yl)-3-isopropyl-1H-indol-5-yl)piperidin-1-yl)-1-(2-methylpyrrolidin-1-yl)ethan-1-one], for which the values for the IC50 in assay [1] (setting [4]), in assay [2] and in assay [3] (setting [5]) were 12.2 nM, 4.5 nM and 483 nM, respectively.

In the case of `Cc1cc(-c2[nH]c3ccc(C4CCN(C(=O)c5c(C)noc5C)CC4)cc3c2C(C)C)cc(C)n1` [Example 119, (3,5-dimethylisoxazol-4-yl)(4-(2-(2,6-dimethylpyridin-4-yl)-3-isopropyl-1H-indol-5-yl)piperidin-1-yl) methanone], the results for the IC50 in assay [1] (setting [6]), in assay [2] and in assay [3] (setting [7]) were 96.1 nM, 6.9 nM and 5440 nM, respectively.

`CCc1c(-c2ccnc(OC)c2)[nH]c2ccc(C3CCN(C4C[C@H]5CC[C@@H](C4)N5C)CC3)cc12` (stereo partly drawn) [Example 791, 3-ethyl-2-(2-methoxypyridin-4-yl)-5-(1-((1R,3s,5S)-8-methyl-8-azabicyclo[3.2.1]octan-3-yl)piperidin-4-yl)-1H-indole]: the IC50 was determined as 158 nM in assay [1] (setting [6]), 666 nM in assay [2] and 1600 nM in assay [3] (setting [7]).
